Experimental data: PMC6766977 (International Journal of Cancer, 2019)

Experiments:
[1] = system: LNCaP; assay: Cell viability; type: cell-based, human; conditions: read-out: IC50 inhibition of cell viability LNCaP; 1 nM R1881, 6 days; mean ± SD
[2] = system: LAPC‐4 prostate cancer xenograft; assay: LAPC-4 xenograft in vivo efficacy; parameters: species or system mice; conditions: for ΔT/ΔC tumor volume: Day 56
[3] = system: KuCaP‐1 prostate cancer xenograft; assay: KuCaP-1 patient-derived xenograft in vivo efficacy; parameters: species or system mice; conditions: for ΔT/ΔC tumor volume: Day 68; for Maximal body weight loss: vehicle group 10%

For C[C@@H](Cn1ccc(-c2ccc(C#N)c(Cl)c2)n1)NC(=O)c1cc([C@@H](C)O)[nH]n1 [(S,R)‐darolutamide], the IC50 [1] was 4.71 µM.
Work on C[C@H](O)c1cc(C(=O)N[C@@H](C)Cn2ccc(-c3ccc(C#N)c(Cl)c3)n2)n[nH]1 [(S,S)‐darolutamide] yielded an IC50 [1] of 5.23 µM.
Work on CC(O)(CS(=O)(=O)c1ccc(F)cc1)C(=O)Nc1ccc(C#N)c(C(F)(F)F)c1 (centres unmarked) [Bicalutamide, reference compound] yielded an IC50 [1] of 3.47 µM.
CC(O)c1cc(C(=O)N[C@@H](C)Cn2ccc(-c3ccc(C#N)c(Cl)c3)n2)[nH]n1 (some centres unmarked) [Darolutamide] was tested, and the IC50 [1] was 5.26 µM, the ΔT/ΔC tumor volume ([2]; LAPC‐4, 100 mg/kg bi‐daily oral) was 25% and the ΔT/ΔC tumor volume ([2]; LAPC‐4, 200 mg/kg once daily oral) was 23%. For the same compound, the “Reduction of FKBP5 expression in tumors” value ([2]; LAPC‐4 tumors, highest treatment doses, 4 hr after final dosing) was 50%, the ΔT/ΔC tumor volume ([3]; KuCaP‐1, 40 mg/kg bi‐daily oral) was 45% and the “Maximal body weight loss” value ([3]; KuCaP‐1, 40 mg/kg bi‐daily) was 8%. The ΔT/ΔC tumor volume ([3]; KuCaP‐1, 100 mg/kg bi‐daily oral) was 26% and the “Maximal body weight loss” value ([3]; KuCaP‐1, 100 mg/kg bi‐daily) was 6%.
With CNC(=O)c1ccc(N2C(=S)N(c3ccc(C#N)c(C(F)(F)F)c3)C(=O)C2(C)C)cc1F [Enzalutamide, reference compound] the ΔT/ΔC tumor volume ([3]; KuCaP‐1, 30 mg/kg daily) was 70% and the ΔT/ΔC tumor volume ([3]; KuCaP‐1, 100 mg/kg daily) was 99%.
CC(=O)c1cc(C(=O)N[C@@H](C)Cn2ccc(-c3ccc(C#N)c(Cl)c3)n2)[nH]n1 [Keto‐darolutamide] showed an IC50 [1] of 3.21 µM.
